From patent US20090216117A1, “NOVEL METHOD OF USING TRIACETIN AND AUXILIARY AGENT FOR ULTRASONIC DIAGNOSTIC EXAMINATION” (SHINSHU UNIVERSITY, priority 2005, published 2009) come the findings set out here.

Each structure is given as a SMILES string. “Also recorded” adds a separate entry of the source.

Data set [1] relates to Beagles. The data set is described as follows: Test 2: Pylorus occlusion test (gastric emptying, Evans blue recovery from duodenum). Conditions: for suppression of quantitative gastric emptying in comparison with physiological saline: 50 mL test fluid into stomach; for percent emptied: after 50 minutes, almost all physiological saline emptied by about 30 minutes. It is filed as in vivo. The protocol: To 10 mL of triacetin (Wako Pure Chemical Industries, Ltd.), 40 mL of water was added to make a total volume of 50 mL, thereby making test fluid A.
Ten milliliters of olive oil (Wako Pure Chemical Industries, Ltd.) and 10 mL of propylene glycol were mixed and water was added to make a total volume of 50 mL, thereby making test fluid B.
Half a gram of stearic acid (Wako Pure Chemical Industries, Ltd.) and 20 mL of propylene glycol were mixed and water was added to make a total volume of 50 mL, thereby making test fluid C.
Beagles each weighing about 10 kg were given general anesthesia with an injection of Nembutal (Dainippon Pharmaceutical Co., Ltd.) and following middle incision, tubes were inserted into the body of stomach and the duodenum as shown in FIG. 8 and with each tube being passed subcutaneously through the flank to the back, the dogs received a preliminary invasive operation for an experiment under an unanesthetized condition.
Starting six days after the operation when there were no longer the effects of anesthesia and those of the operative invasion and the general condition had recovered, the study of the sample fluids of interest was started. To be more specific, it is well known that the gastric emptying capability is suppressed under an anesthetized condition, so in the Example under consideration, in order to eliminate that effect and also to determine data for a more normal state, an experiment was conducted under a chronic unanesthetized condition.
To each test fluid, 5 mg of Evans blue (Wako Pure Chemical Industries, Ltd.) was added and 50 mL of the mixture was injected into the stomach of each beagle through the tube indicated by 1 in FIG. 8. Similarly, a tube was placed in the duodenum and the test fluid emptied from the stomach was recovered through the tube indicated by 2 in FIG. 8. At given time intervals, the emptied test fluid was recovered by suction (for one minute) through the tube left in place in the duodenum and the Evans blue contained in it was measured for absorbance (DU R640 SPECTRO PHOTOMETER, product of Beckman Inc.) at a wavelength of 605 nm, to thereby measure the concentration of Evans blue in the suctioned fluid; the amount of recovery was used to determine the gastric emptying rate.

Data set [2] can be described thus: Dissolution of triacetin in water. It is filed as physicochemical. Particulars: ordinary temperature. From the text: If the auxiliary agent for examination in ultrasonic imaging diagnosis is used in the state of an emulsion, the oil-water interface will reflect ultrasound and affect its propagation. […] For instance, triacetin described in the present invention can be dissolved in water in an amount of about 7% at ordinary temperature without forming an emulsion and this concentration is sufficient for suppressing gastric motility.

The subject of data set [3] is Beagles. Briefly: Test 3: Measurement of gastric contractile motion by strain gage. It is filed as in vivo. On the procedure:
Two hundred microliters of triacetin (Wako Pure Chemical Industries, Ltd.) was dissolved in distilled water to make a volume of 20 mL, thereby making test fluid D.
Four milliliters of olive oil (Wako Pure Chemical Industries, Ltd.) was dissolved in distilled water to make a volume of 20 mL, thereby making test fluid E.
Twenty milliliters of distilled water was used as control fluid F.
In order to measure muscular contraction with the strain gage, the submucosa was stretched so that the surface of the mucous membrane would not be incised and the strain gage was buried in the submucosa and sutured thereto, with the wound of incision being closed by a suture.
The tube and the strain gage were subcutaneously guided to the outside of the body from the flank to the back and the dogs received a preliminary invasive operation for an experiment under an unanesthetized condition.
Starting six days after the operation when there were no longer the effects of anesthesia and those of the operative invasion and the general condition had recovered, the study of the sample fluids of interest was started. […]
Note that signals from the strain gage were amplified (VC-11, NIHON KOHDEN) and then AD converted, with the resulting digital data being analyzed with Origin Version 6.5 (OriginLab Corporation). […]

A short description of data set [4]: Test 1: viscosity comparison with Brookfield viscometer. It is filed as physicochemical. The protocol:
Using water (ion-exchanged water), an aqueous solution of triacetin, and an aqueous solution of sodium alginate which is a typical viscosity enhancing polysaccharide (KIMICA Corporation, Grade: IL-2), viscosity comparison was made. Viscosity was measured with a Brookfield viscometer (product of TOKIMEC INC., Model BM).

In the case of `CC(=O)OCC(COC(C)=O)OC(C)=O` [Triacetin, triacetin], in the data set on Beagles [1] (50 mL test fluid A into stomach, physiological saline peaked at about 5 minutes), the “time at which the emptied amount peaked” value lay in the range of 10 to 20 min. Moreover, the pylorus occluding effect entry in the data set on Beagles [1] (50 mL test fluid injected into stomach, unanesthetized beagles, physiological saline as comparison) is “markedly effective in occluding the pylorus”. Also, the “suppression of quantitative gastric emptying in comparison with physiological saline” value with Beagles [1] is listed as “obviously suppressed”. Further, the percent emptied result in the data set on Beagles [1] is “about 5%”. Moreover, the “amount that can be dissolved in water without forming an emulsion” value in data set [2] is given as “about 7%”. Further, the “change in amplitude and frequency of contractions (contractile motion of the stomach)” value with Beagles [3] (20 μL/kg injected into stomach in phase III, fasted unanesthetized beagles) is “obvious suppression of the contractile motion; also recorded: decreased both the amplitude and frequency of contractions”. Also, the “duration of the suppression of contractile motion after injection” value in the data set on Beagles [3] (20 μL/kg, change occurred immediately after the injection) was “about three”. Besides, the values for the Viscosity in data set [4] (0.2% aqueous solution), in data set [4] (1.0% aqueous solution) and in data set [4] (5.0% aqueous solution) were 10.1 mPa · s, 10.8 mPa · s and 16.7 mPa · s, respectively. In addition, in data set [4] (aqueous solutions), the “viscosity enhancement as compared with sodium alginate” value is “considerably less effective in viscosity enhancement”.

With `CCCCCCCCCCCCCCCCCC(=O)O` [stearic acid, reference compound], in the data set with Beagles [1], the “suppression of quantitative gastric emptying in comparison with physiological saline” value was “obvious suppression” and the percent emptied result is reported as “about 10%”.
